pEC50: −log10 of the molar value. Like-named read-outs stand apart in the source and are kept apart here.
Target: T1, human APJ receptor (Homo sapiens, UniProt P35414)
T1 construct: expressed in transfected cells
T1 sequence (P35414 1-380): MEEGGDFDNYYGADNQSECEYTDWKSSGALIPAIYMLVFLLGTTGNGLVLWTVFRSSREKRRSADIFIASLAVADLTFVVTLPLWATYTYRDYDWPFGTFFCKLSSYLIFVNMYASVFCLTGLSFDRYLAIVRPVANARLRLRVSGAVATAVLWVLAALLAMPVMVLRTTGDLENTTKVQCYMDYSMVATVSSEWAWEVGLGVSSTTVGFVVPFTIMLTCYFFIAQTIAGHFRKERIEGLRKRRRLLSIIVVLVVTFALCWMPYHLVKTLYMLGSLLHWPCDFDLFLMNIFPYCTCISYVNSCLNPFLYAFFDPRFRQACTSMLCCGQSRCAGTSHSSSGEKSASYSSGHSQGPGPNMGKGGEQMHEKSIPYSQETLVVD
Assay: Intracellular cAMP accumulation assay (APJ hcAMP, HTRF)
Assay type: cell-based
How it was run: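 HEK293 cells stably expressing human APJ, 5,000/well, incubated 30 min at room temperature with compound plus […] and 2 μM forskolin. cAMP read by HTRF against a cAMP standard curve; EC50 from variable-slope sigmoidal fit, Ymax as % of (Pyr1)apelin-13 inhibition.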

[1] = Table 1, HEK293 cells stably expressing human APJ receptor, inhibition of forskolin-mediated cAMP production, read-out: APJ hcAMP EC50
[2] = human APJ, cAMP, potency range class, read-out: APJ cAMP Human EC50

| Compound | pEC50 [1] | pEC50 [2] | pEC50 (Table 3, HEK293 cells stably expressing human APJ receptor, read-out: APJ cAMP Human EC50) |
| --- | --- | --- | --- |
| CCCC(NC(=O)c1ccc(-c2c(Cl)cccc2-c2nc3ccccc3[nH]2)c(C(=O)O)c1)c1ccccc1OC [Example 225, (S)-2′-(1H-1,3-benzodiazol-2-yl)-6′-chloro-4-{[1-(2-methoxyphenyl)butyl]carbamoyl}-[1,1′-biphenyl]-2-carboxylic acid] | > 8.00 | > 8.00 | – |
| O=C(N[C@@H](CCC(F)(F)F)c1ccccc1)c1ccc(-c2c(Cl)cccc2-c2nc3ccccc3[nH]2)c(C(=O)O)c1 [Example 226, (S)-2′-(1H-1,3-benzodiazol-2-yl)-6′-chloro-4-[(4,4,4-trifluoro-1-phenylbutyl)carbamoyl]-[1,1′-biphenyl]-2-carboxylic acid] | > 8.00 | > 8.00 | – |
| COC[C@@H](NC(=O)c1ccc(-c2c(Cl)cccc2-c2nc3ccccc3[nH]2)c(C(=O)O)c1)C1CC1 [Example 230, (S)-2′-(1H-1,3-benzodiazol-2-yl)-6′-chloro-4-[(1-cyclopropyl-2-methoxyethyl)carbamoyl]-[1,1′-biphenyl]-2-carboxylic acid] | 6.30 to 7.00 | 6.30 to 7.00 | – |
| COc1cc2nc(-c3cccc(Cl)c3-c3ccc(C(=O)N[C@H](c4ccc(F)cc4)C4CC4)cc3C(=O)O)[nH]c2cc1F [Example 232, (S)-2′-chloro-4-{[cyclopropyl(4-fluorophenyl)methyl]carbamoyl}-6′-(6-fluoro-5-methoxy-1H-1,3-benzodiazol-2-yl)-[1,1′-biphenyl]-2-carboxylic acid] | > 8.00 | > 8.00 | – |
| CCCC(NC(=O)c1ccc(-c2cc(Cl)ccc2-c2nc3cc(C(C)(C)C)ccc3[nH]2)c(C(=O)O)c1)c1ccccc1OC (centres unmarked) [Example 241, 2′-(5-tert-butyl-1H-1,3-benzodiazol-2-yl)-5′-chloro-4-{[1-(2-methoxyphenyl)butyl]carbamoyl}-[1,1′-biphenyl]-2-carboxylic acid] | > 8.00 | > 8.00 | – |
| (S)-2′-chloro-4-{[(1R)-1-cyclohexylbutyl]carbamoyl}-6′-(6-fluoro-5-methoxy-1H-1,3-benzodiazol-2-yl)-[1,1′-biphenyl]-2-carboxylic acid [Example 160] | > 8.00 | > 8.00 | – |
| (S)-2′-chloro-6′-(5- chloro-6-methyl-1H- 1,3-benzodiazol-2- yl)-4-{[(1R)-1- phenylbutyl] carbamoyl}- [1,1′-biphenyl]-2- carboxylic acid [Example 91] | > 8.00 | – | > 8.00 |

Source: patent US11498903B2 (BRISTOL-MYERS SQUIBB COMPANY, priority 2017, dated 2022)
